The term IC50 denotes the concentration at which inhibition is half-maximal. Higher therefore signals a need for much substance.

For 20 compounds, IC50 results are on record in patent publication US7038049B2, “Haloanilino quinazolines and therapeutic use thereof” (Parker Hughes Institute, priority 1999, dated 2006).

Each structure is given as a SMILES string.

What all share (format): cell-based
In assay [1] the test system is NALM-6 human leukemia cells. As to the kind of experiment: MTT cytotoxicity assay, NALM-6. As to conditions: Homo sapiens. The method, then: (§1) The cytotoxicity assay of various compounds against human tumor cell lines was performed using the MTT (3-[4,5-dimethylthiazol-2-yl]-2,5-diphenyl tetrazolium bromide) assay (Boehringer Mannheim Corp., Indianapolis, Ind.). Briefly, exponentially growing tumor cells were seeded into a 96-well plate at a density of 2.5×10^4 cells/well and incubated for 36 hours at 37° C. prior to drug exposure. On the day of treatment, culture medium was carefully aspirated from the wells and replaced with fresh medium containing the quinazoline compounds at concentrations ranging from 0.1 to 250 μM. Triplicate wells were used for each treatment.
(§2) Human cell lines were obtained from American Type Culture Collection (Rockville, Md.) and maintained as a continuous cell line in Dulbecco's modified Eagles' medium supplemented with 10% fetal bovine serum and antibiotics. Cells used in this study include human leukemia cells (NALM-6 and MOLT-3), human breast cancer cells ([…]), human prostate cancer cells (PC3), and human brain tumor cells (U373).
(§3) The cells were incubated with the various compounds for 24–36 hours at 37° C. in a humidified 5% CO2 atmosphere. To each well, 10 μl of MTT (0.5 mg/ml final concentration) was added and the plates were incubated at 37° C. for 4 hours to allow MTT to form formazan crystals by reacting with metabolically active cells. The formazan crystals were solubilized overnight at 37° C. in a solution containing 10% SDS in 0.01 M HCl. The absorbance of each well was measured in a microplate reader (Labsystems) at 540 nm and a reference wavelength of 690 nm. To translate the OD 540 values into the number of live cells in each well, the OD 540 values were compared to those on standard OD 540—versus—cell number curves generated for each cell line. The percent survival was calculated using the formula:
(§4) [formula] The IC50 values were calculated by non-linear regression analysis. Detection of Apoptosis
(Formazan colour is commonly taken as a measure of viable cells.)

Assay [2] has as its system MOLT-3 human leukemia cells. The assay can be described thus: MTT cytotoxicity assay, MOLT-3. Conditions: Homo sapiens. As for the experimental part:
as §1, §2, §3, §4

The test system of assay [3] is BT20 human breast cancer cells. As to the kind of experiment: MTT cytotoxicity assay, BT20. Conditions: Homo sapiens. The method, then: as §1, §2, §3, §4
Assay [4] has as its system U373 human brain tumor cells. As to the kind of experiment: MTT cytotoxicity assay, U373. The method, then: as §1, §2, §3, §4
For assay [5], the system named is PC3 human prostate cancer cells. The assay can be described thus: MTT cytotoxicity assay, PC3. As to conditions: Table 5, fluoro-substituted, value ± spread. The method, then: as §1, §2, §3, §4
Where [6] appears, read: NALM-6, Table 5, fluoro-substituted, value ± spread.
Setting [7] is: MOLT-3, Table 5, fluoro-substituted, value ± spread.
The mark [8] stands for this setting: BT-20, Table 5, fluoro-substituted, value ± spread.
[9] abbreviates: Homo sapiens, U373 MG, Table 5, fluoro-substituted, value ± spread.
Where [10] appears, read: NALM-6, Table 3, iodide substituted, 24–36 hours.
[11] abbreviates: MOLT-3, Table 3, iodide substituted, 24–36 hours.
Where [12] appears, read: BT-20, Table 3, iodide substituted, 24–36 hours.
Where [13] appears, read: Homo sapiens, U373 MG, Table 3, iodide substituted, 24–36 hours.
The mark [14] stands for this setting: NALM-6, Table 4, OH substituted, 24–36 hours.
Setting [15] is: MOLT-3, Table 4, OH substituted, 24–36 hours.
[16] abbreviates: BT-20, Table 4, OH substituted, 24–36 hours.
Where [17] appears, read: Table 4, OH substituted, 24–36 hours.

Take `COc1cc2ncnc(Nc3c(F)c(F)c(Br)c(F)c3F)c2cc1OC` [HI-P144, 4-(2′,3′,5′,6′-tetrafluoro-4′-bromophenyl)amino-6,7-dimethoxyquinazoline]: the half-inhibitory concentration (IC50) in assay [1] (setting [6]) was 28.1 ± 2.6 µM; in assay [2] (setting [7]) it was 24.9 ± 3.7 µM; in assay [3] (setting [8]), 63.4 ± 5.5 µM; in assay [4] (setting [9]), 49.5 ± 11.3 µM; in assay [5], > 250 µM.

`COc1cc2ncnc(Nc3ccc(Br)cc3F)c2cc1OC` [HI-P214, 4-(2′-Fluoro-4′-bromophenyl)-amino-6,7-dimethoxyquinazoline]: the IC50 is > 250 µM in assay [1] (NALM-6, Table 1, bromo substituted, 24–36 hours); > 250 µM in assay [1] (setting [6]); > 250 µM in assay [2] (MOLT-3, Table 1, bromo substituted, 24–36 hours); > 250 µM in assay [2] (setting [7]); > 250 µM in assay [3] (BT-20, Table 1, bromo substituted, 24–36 hours); > 250 µM in assay [3] (setting [8]). Moreover, the half-maximal inhibitory concentration (IC50) in assay [4] (setting [9]) and in assay [5] was > 250 µM each time.

Take `COc1cc2ncnc(Nc3cccc(C(F)(F)F)c3)c2cc1OC` [HI-P218, 4-(3′-Trifluoromethylphenyl)-amino-6,7-dimethoxyquinazo-line]: the 50% inhibitory concentration (IC50) in assay [1] (setting [6]) was determined as 37 ± 5.8 µM; in assay [2] (setting [7]), 33.2 ± 3.3 µM; in assay [3] (setting [8]), 37.6 ± 5.2 µM; in assay [4] (setting [9]), 29.9 ± 7.3 µM; in assay [5], 126 ± 5.8 µM.

Turning to `COc1cc2ncnc(Nc3ccc(F)cc3)c2cc1OC` [HI-P221, 4-(4′-Fluorophenyl)-amino-6,7-dimethoxyquinazoline], the half-inhibitory concentration (IC50) was 100 ± 4.8 µM in assay [1] (setting [6]); 98.7 ± 3.8 µM in assay [2] (setting [7]); 30.7 ± 7.9 µM in assay [3] (setting [8]); 28.8 ± 12.7 µM in assay [4] (setting [9]); > 250 µM in assay [5].

With `COc1cc2ncnc(Nc3ccc(C(F)(F)F)cc3)c2cc1OC` [HI-P223, 4-(4′-Trifluoromethylphenyl)-amino-6,7-dimethoxyquinazoline], the half-maximal inhibitory concentration (IC50) in assay [1] (setting [6]) was 39.5 ± 8 µM; in assay [2] (setting [7]), 40.8 ± 15.1 µM; in assay [3] (setting [8]), 27.6 ± 8.6 µM; in assay [4] (setting [9]), 32.1 ± 3.9 µM; in assay [5], > 250 µM.

Take `COc1cc2ncnc(Nc3cccc(F)c3)c2cc1OC` [HI-P224, 4-(3′-fluorophenyl)amino-6,7-dimethoxyquinazoline]: the IC50 in assay [1] (setting [6]) is 20.2 ± 8.1 µM; in assay [2] (setting [7]) it was 23.3 ± 7.7 µM; in assay [3] (setting [8]) it was 58.3 ± 5.8 µM; in assay [4] (setting [9]) it was 22.4 ± 5.9 µM; in assay [5], > 250 µM.

For `COc1cc2ncnc(Nc3ccccc3C(F)(F)F)c2cc1OC` [HI-P228, 4-(2′-Trifluoromethylphenyl)-amino-6,7-dimethoxyquinazoline], the concentration for half-maximal inhibition (IC50) in assay [1] (setting [6]) was 57.3 ± 24.8 µM; in assay [2] (setting [7]) it was 237 ± 4.8 µM; in assay [3] (setting [8]), > 250 µM; in assay [4] (setting [9]) it was > 250 µM; in assay [5], > 250 µM.

In the case of `COc1cc2ncnc(Nc3ccc(S(=O)(=O)F)cc3)c2cc1OC` [HI-P232, 4-[4′-benzenesulfanilylfluoride]-amino-6,7-dimethoxyquinazoline], the IC50 in assay [1] (setting [6]) turned out to be 41.4 ± 6.9 µM; in assay [2] (setting [7]), 43.6 ± 2.3 µM; in assay [3] (setting [8]), 70.5 ± 8.2 µM; in assay [4] (setting [9]) it was 208 ± 18.1 µM; in assay [5] it was 88.9 ± 17.2 µM.

For the compound `COc1cc2ncnc(Nc3ccccc3F)c2cc1OC` [HI-P264, 4-(2′-Fluorophenyl)-amino-6,7-dimethoxyquinazoline], the IC50 in assay [1] (setting [6]) is 47 ± 19.5 µM; in assay [2] (setting [7]), 70.9 ± 17.3 µM; in assay [3] (setting [8]), 33.3 ± 7.5 µM; in assay [4] (setting [9]), 53.3 ± 6.7 µM; in assay [5] it was > 250 µM.

For `COc1cc2ncnc(Nc3cccc(I)c3)c2cc1OC` [HI-P271, 4-(3′-Iodophenyl)-amino-6,7-dimethoxyquinazoline], the IC50 in assay [1] (setting [10]) is 6.1 µM; in assay [2] (setting [11]), 9.6 µM; in assay [3] (setting [12]), > 250 µM; in assay [4] (setting [13]), > 250 µM.

Consider `COc1cc2ncnc(Nc3cc(I)c(O)c(I)c3)c2cc1OC` [HI-P294, 4-(4′-Hydroxy-3,5-diiodophenyl)-amino-6,7-dimethoxy-quinazoline], for which the IC50 in assay [1] (setting [10]), in assay [1] (setting [14]), in assay [2] (setting [11]), in assay [2] (setting [15]), in assay [3] (setting [12]) and in assay [3] (setting [16]) was > 250 µM each time. Moreover, the IC50 in assay [4] (setting [13]) and in assay [4] (setting [17]) was > 250 µM throughout.

Regarding `COc1cc2ncnc(Nc3ccc(O)c(I)c3)c2cc1OC` [HI-P299, 4-(4′-Hydroxy-3′-iodophenyl)-amino-6,7-dimethoxyquinazoline], the IC50 was 15.4 µM in assay [1] (setting [10]); 66.3 µM in assay [1] (setting [14]); 60.1 µM in assay [2] (setting [11]); 51.2 µM in assay [2] (setting [15]); > 250 µM in assay [3] (setting [12]); > 250 µM in assay [3] (setting [16]). The IC50 in assay [4] (setting [13]) and in assay [4] (setting [17]) was > 250 µM each time.

As to `COc1cc2ncnc(Nc3ccc(I)cc3)c2cc1OC` [HI-P300, 4-(4′-Iodophenyl)-amino-6,7-dimethoxyquinazoline], the half-maximal inhibitory concentration (IC50) in assay [1] (setting [10]) stood at 58 µM; in assay [2] (setting [11]), 59.1 µM; in assay [3] (setting [12]), 72.6 µM; in assay [4] (setting [13]), 116 µM.

For `COc1cc2ncnc(Nc3ccc(C(c4ccc(N)cc4)(C(F)(F)F)C(F)(F)F)cc3)c2cc1OC` [HI-P352, 4-{4′-[2″-(4′′′-Aminophenyl)-hexafluoropropyl]phenyl}amino-6,7-dimethoxyquinazoline], the half-maximal inhibitory concentration (IC50) is 7.1 ± 1.8 µM in assay [1] (setting [6]); 21.8 ± 1.7 µM in assay [2] (setting [7]); 50.3 ± 14.8 µM in assay [3] (setting [8]); 65.5 ± 11.2 µM in assay [4] (setting [9]); 72.6 ± 2.5 µM in assay [5].

With `COc1cc2ncnc(Nc3ccc(C(c4cccc(N)c4)(C(F)(F)F)C(F)(F)F)cc3)c2cc1OC` [HI-P353], the IC50 amounted to 6.1 ± 1.4 µM in assay [1] (setting [6]); 17.4 ± 1.5 µM in assay [2] (setting [7]); 14.1 ± 3.3 µM in assay [3] (setting [8]); 14.5 ± 7.6 µM in assay [4] (setting [9]); 64.9 ± 11.9 µM in assay [5].

Regarding `COc1cc2ncnc(Nc3cccc(OC(F)(F)F)c3)c2cc1OC` [HI-P364, 4-(3′-Trifluoromethoxylphenyl)-amino-6,7-dimethoxyquinazoline], the IC50 is 7.9 ± 1.9 µM in assay [1] (setting [6]); 25.3 ± 9.1 µM in assay [2] (setting [7]); 40.1 ± 8.6 µM in assay [3] (setting [8]); 27.7 ± 1.2 µM in assay [4] (setting [9]); > 250 µM in assay [5].

On to `COc1cc2ncnc(Nc3ccccc3OC(F)(F)F)c2cc1OC` [HI-P365, 4-(2′-Trifluoromethoxylphenyl)-amino-6,7-dimethoxyquinazoline], for which the concentration for half-maximal inhibition (IC50) was 86.5 ± 3.4 µM in assay [1] (setting [6]); 111 ± 7.5 µM in assay [2] (setting [7]); > 250 µM in assay [3] (setting [8]); > 250 µM in assay [4] (setting [9]); > 250 µM in assay [5].

Regarding `COc1cc2ncnc(Nc3cc(C(F)(F)F)cc(C(F)(F)F)c3)c2cc1OC` [HI-P366, 4-(3′,5′-Ditrifluoromethylphenyl)-amno-6,7-dimethoxyquinazoline], the IC50 in assay [1] (setting [6]) is 52.8 ± 14 µM; in assay [2] (setting [7]), 137 ± 10.3 µM; in assay [3] (setting [8]) it was 61.7 ± 12.1 µM; in assay [4] (setting [9]), 55.5 ± 13.2 µM; in assay [5], > 250 µM.

`COc1cc2ncnc(Nc3ccc(O)c(F)c3)c2cc1OC` [HI-P369, 4-(4′-Hydroxyl-3′-fluorophenyl)-amino-6,7-dimethoxyquinazoline]: the half-inhibitory concentration (IC50) in assay [1] (setting [6]), in assay [2] (setting [7]), in assay [3] (setting [8]), in assay [4] (setting [9]) and in assay [5] was > 250 µM in each case.

Turning to `COc1cc2ncnc(Nc3cc(F)c(O)c(F)c3)c2cc1OC` [HI-P408, 4-(4′-Hydroxyl-3′,5′-difluorophenyl)-amino6,7-dimethoxy-quinazoline], the IC50 in assay [1] (setting [6]) is 116 ± 17.8 µM; in assay [2] (setting [7]), 228 ± 20.8 µM; in assay [3] (setting [8]) it was > 250 µM; in assay [4] (setting [9]), > 250 µM; in assay [5], > 250 µM.
